Test results as given in publication PMC5493200 (ACS infectious diseases, 2016).
“And” between values parts separate entries of the source, which are not always exact repeats. Equal entries are not always repeated.

Columns and labels:
Rv1258c efflux pump = conditions: for Efflux Ratio: H37Rv MIC / Rv1258c KO MIC
[1] = tested on: M. tuberculosis H37Rv Rv1258c knockout (KO); experiment: microbe, parasite or virus in culture; format: cell-based; conditions: Tables 1-4 and text; 7 days, 7H9 broth
[2] = molecular target: Purified 70S M. smegmatis bacterial ribosomes (Mycolicibacterium smegmatis, UniProt A0QSG6); experiment: Ribosomal translation inhibition; format: biochemical; conditions: for Ribosome IC50: inhibits luciferase activity by 50%
Purified 70S M. smegmatis bacterial ribosomes, sequence (A0QSG6 whole entry): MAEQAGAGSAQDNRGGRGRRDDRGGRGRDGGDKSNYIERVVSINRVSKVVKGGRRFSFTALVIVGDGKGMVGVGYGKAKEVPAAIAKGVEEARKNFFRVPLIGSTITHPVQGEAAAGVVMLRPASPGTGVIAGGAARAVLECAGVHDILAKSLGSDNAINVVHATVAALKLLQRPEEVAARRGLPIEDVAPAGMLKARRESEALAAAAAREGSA

M. tuberculosis H37Rv = experiment: microbe, parasite or virus in culture; format: cell-based, Mycobacterium tuberculosis; conditions: Tables 1-4 and text; […]

Structure (SMILES): Br.Br.Br.CNC1C(O)C(NC)C2OC3(O)C(NC(=O)Cc4ncccc4C)CC(C)OC3OC2C1O [Compound 29, 3′-Dihydro-3′-deoxy-3′(R)-(3-methylpyridin-2-yl)acetylamino spectinomycin trihydrobromide]
- Efflux Ratio (Rv1258c efflux pump): 4
- Rv1258c KO MIC [1]: 6.3 µg/mL
- Ribosome IC50 [2]: 1.00 µg/mL
- H37Rv MIC (M. tuberculosis H37Rv): 25 µg/mL

Structure (SMILES): Br.Br.Br.CNC1C(O)C(NC)C2OC3(O)C(OC(C)C[C@H]3NC(=O)Cc3cnccn3)OC2C1O (stereo partly drawn) [Compound 15, 3′-Dihydro-3′-deoxy-3′(R)-(pyrazin-2-yl)acetylamino spectinomycin trihydrobromide]
- Efflux Ratio (Rv1258c efflux pump): 1
- Rv1258c KO MIC [1]: 25 µg/mL

Structure (SMILES): CNC1C(O)C(NC)C2OC3(O)C(NC(=O)Cc4cc(O)ccn4)CC(C)OC3OC2C1O.Cl.Cl.Cl [Compound 35, 3′-Dihydro-3′-deoxy-3′(R)-(4-hydroxypyridin-2-yl)acetylamino spectinomycin trihydrochloride]
- Efflux Ratio (Rv1258c efflux pump): 2
- Rv1258c KO MIC [1]: 12.5 µg/mL
- Ribosome IC50 [2]: 0.44 µg/mL
- H37Rv MIC (M. tuberculosis H37Rv): 25 µg/mL

Structure (SMILES): Br.Br.Br.CNC1C(O)C(NC)C2OC3(O)C(NC(=O)Cc4cc(OC)ccn4)CC(C)OC3OC2C1O [Compound 34, 3′-Dihydro-3′-deoxy-3′(R)-(4-methoxypyridin-2-yl)acetylamino spectinomycin trihydrobromide]
- Efflux Ratio (Rv1258c efflux pump): 4
- Rv1258c KO MIC [1]: 3.1 µg/mL
- Ribosome IC50 [2]: 0.39 µg/mL
- H37Rv MIC (M. tuberculosis H37Rv): 12.5 µg/mL

Structure (SMILES): Br.Br.Br.CNC1C(O)C(NC)C2OC3(O)C(NC(=O)Cc4cccnn4)CC(C)OC3OC2C1O [Compound 14, 3′-Dihydro-3′-deoxy-3′(R)-(pyridazin-3-yl) acetylamino spectinomycin trihydrobromide]
- Efflux Ratio (Rv1258c efflux pump): 2
- Rv1258c KO MIC [1]: 12.5 µg/mL

Structure (SMILES): Br.Br.Br.CNC1C(O)C(NC)C2OC3(O)C(OC(C)C[C@H]3NC(=O)Nc3ccccc3)OC2C1O (stereo partly drawn) [Compound 8, 3′-Dihydro-3′-deoxy-3′(R)-phenylaminocarbonylamino spectinomycin trihydrobromide]
- Efflux Ratio (Rv1258c efflux pump): >8
- Rv1258c KO MIC [1]: 25 µg/mL
- Ribosome IC50 [2]: 3.77 µg/mL

Structure (SMILES): Br.Br.Br.CNC1C(O)C(NC)C2OC3(O)C(NC(=O)Cc4ccc(C)cn4)CC(C)OC3OC2C1O [Compound 31, 3′-Dihydro-3′-deoxy-3′(R)-(5-methylpyridin-2-yl)acetylamino spectinomycin trihydrobromide]
- Rv1258c KO MIC [1]: 3.1 µg/mL
- Ribosome IC50 [2]: 0.54 µg/mL
- H37Rv MIC (M. tuberculosis H37Rv): 3.1 µg/mL

Structure (SMILES): Br.Br.Br.CNC1C(O)C(NC)C2OC3(O)C(NC(=O)Cc4c[nH]cn4)CC(C)OC3OC2C1O [Compound 20, 3′-Dihydro-3′-deoxy-3′(R)-(1H-imidazol-4-yl)acetylamino spectinomycin trihydrobromide]
- Efflux Ratio (Rv1258c efflux pump): 2
- Rv1258c KO MIC [1]: 12.5 µg/mL
- Ribosome IC50 [2]: 1.10 µg/mL
- H37Rv MIC (M. tuberculosis H37Rv): 25 µg/mL

Structure (SMILES): CNC1C(O)C(NC)C2OC3(O)C(OC(C)C[C@H]3NC(=O)Cc3cc(OC)c(F)cn3)OC2C1O.Cl.Cl.Cl (stereo partly drawn) [Compound 50, 3′-Dihydro-3′-deoxy-3′(R)-(5-fluoro-4-methoxypyridin-2-yl)acetylamino spectinomycin trihydrochloride]
- Efflux Ratio (Rv1258c efflux pump): 2
- Rv1258c KO MIC [1]: 3.1 µg/mL
- Ribosome IC50 [2]: 0.92 µg/mL
- H37Rv MIC (M. tuberculosis H37Rv): 6.3 µg/mL

Structure (SMILES): CNC1C(O)C(NC)C2OC3(O)C(OC(C)C[C@H]3NC(=O)Oc3ccccc3)OC2C1O.Cl.Cl (stereo partly drawn) [Compound 7, 3′-Dihydro-3′-deoxy-3′(R)-phenyloxycarbonylamino spectinomycin dihydrochloride]
- Rv1258c KO MIC [1]: >200 µg/mL
- Ribosome IC50 [2]: 16.62 µg/mL
- H37Rv MIC (M. tuberculosis H37Rv): >200 µg/mL

Structure (SMILES): Br.Br.CNC1C(O)C(NC)C2OC3(O)C(NS(=O)(=O)Cc4ccccc4)CC(C)OC3OC2C1O [Compound 9, 3′-Dihydro-3′-deoxy-3′(R)-benzylsulfonylamino spectinomycin dihydrobromide]
- Efflux Ratio (Rv1258c efflux pump): >16
- Rv1258c KO MIC [1]: 12.5 µg/mL
- Ribosome IC50 [2]: 10.97 µg/mL
- H37Rv MIC (M. tuberculosis H37Rv): >200 µg/mL

Structure (SMILES): Br.Br.Br.CNC1C(O)C(NC)C2OC3(O)C(NC(=O)Cc4cc(C)ccn4)CC(C)OC3OC2C1O [Compound 30, 3′-Dihydro-3′-deoxy-3′(R)-(4-methylpyridin-2-yl)acetylamino spectinomycin trihydrobromide]
- Efflux Ratio (Rv1258c efflux pump): 0.5
- Rv1258c KO MIC [1]: 6.3 µg/mL
- Ribosome IC50 [2]: 0.47 µg/mL
- H37Rv MIC (M. tuberculosis H37Rv): 3.1 µg/mL

Structure (SMILES): Br.Br.Br.CNC1C(O)C(NC)C2OC3(O)C(NC(=O)Cn4cccn4)CC(C)OC3OC2C1O [Compound 22, 3′-Dihydro-3′-deoxy-3′(R)-(1H-pyrazol-1-yl)acetylamino spectinomycin trihydrobroride]
- Efflux Ratio (Rv1258c efflux pump): 1
- Rv1258c KO MIC [1]: 6.3 µg/mL
- Ribosome IC50 [2]: 0.42 µg/mL
- H37Rv MIC (M. tuberculosis H37Rv): 6.3 µg/mL

Structure (SMILES): Br.Br.Br.CNC1C(O)C(NC)C2OC3(O)C(NC(=O)CCc4ccccn4)CC(C)OC3OC2C1O [Compound 12, 3′-Dihydro-3′-deoxy-3′(R)-(pyridin-2-yl)propanoylamino spectinomycin trihydrobromide]
- Fold change of MIC between H37Rv and Rv1258c KO (efflux) (Rv1258c efflux pump): 8 fold
- Efflux Ratio (Rv1258c efflux pump): 8
- Rv1258c KO MIC [1]: 6.3 µg/mL
- Ribosome IC50 [2]: 3.80 µg/mL
- H37Rv MIC (M. tuberculosis H37Rv): 50 µg/mL

Structure (SMILES): CNC1C(O)C(NC)C2OC3(O)C(OC(C)C[C@H]3NC(=O)Cc3ccc(OC(F)F)cn3)OC2C1O.Cl.Cl.Cl (stereo partly drawn) [Compound 40, 3′-Dihydro-3′-deoxy-3′(R)-(5-(difluoromethoxy)pyridin-2-yl)acetylamino spectinomycin trihydrochloride]
- Efflux Ratio (Rv1258c efflux pump): 2

Structure (SMILES): Br.Br.Br.CNC1C(O)C(NC)C2OC3(O)C(OC(C)C[C@H]3NC(=O)Cn3ccnc3)OC2C1O (stereo partly drawn) [Compound 23, 3′-Dihydro-3′-deoxy-3′(R)-(1H-imidazol-1-yl)acetylamino spectinomycin trihydrobromide]
- Fold change of MIC between H37Rv and Rv1258c KO (efflux) (Rv1258c efflux pump): 8 fold
- Efflux Ratio (Rv1258c efflux pump): 8
- Rv1258c KO MIC [1]: 12.5 µg/mL
- Ribosome IC50 [2]: 1.51 µg/mL
- H37Rv MIC (M. tuberculosis H37Rv): 100 µg/mL

Structure (SMILES): Br.Br.Br.CNC1C(O)C(NC)C2OC3(O)C(OC(C)C[C@H]3NC(=O)Cc3nccc(Cl)c3C(C)C)OC2C1O (stereo partly drawn) [Compound 45, 3′-Dihydro-3′-deoxy-3′(R)-(4-chloro-3-isopropylpyridin-2-yl)acetylamino spectinomycin trihydrobromide]
- Fold change of MIC between H37Rv and Rv1258c KO (efflux) (Rv1258c efflux pump): 32 fold
- Efflux Ratio (Rv1258c efflux pump): 32
- Rv1258c KO MIC [1]: 1.6 µg/mL
- Ribosome IC50 [2]: 2.3 µg/mL and 2.31 µg/mL
- H37Rv MIC (M. tuberculosis H37Rv): 50 µg/mL

Structure (SMILES): CN[C@@H]1[C@H](O)[C@H](NC)[C@H]2O[C@]3(O)[C@H](O[C@@H]2[C@H]1O)O[C@H](C)C[C@H]3NC(=O)Cc1ncccn1.Cl.Cl [Compound 13, 3′-Dihydro-3′-deoxy-3′(R)-(pyrimidin-2yl)acetylamino spectinomycin dihydrochloride]
- Rv1258c KO MIC [1]: >200 µg/mL
- IC50 ([2]; as printed in modeling section): 45.5 µM
- Ribosome IC50 [2]: 45.50 µg/mL
- Fold weaker binding than 1 ([2]; relative to 1): 39 fold

Structure (SMILES): Br.Br.Br.CNC1C(O)C(NC)C2OC3(O)C(NC(=O)Cc4ccccn4)CC(C)OC3OC2C1O [Compound 5, 3′-Dihydro-3′-deoxy-3′(S)-(pyridin-2-yl)acetylamino spectinomycin Trihydrobromide]
- Rv1258c KO MIC [1]: >200 µg/mL
- Ribosome IC50 [2]: 42.23 µg/mL

Structure (SMILES): CNC1C(O)C(NC)C2OC3(O)C(OC(C)C[C@H]3NCCc3ccccc3)OC2C1O.Cl.Cl.Cl (stereo partly drawn) [Compound 6, 3′-Dihydro-3′-deoxy-4(R)-2-phenylethylamino spectinomycin trihydrochloride]
- H37Rv MIC (M. tuberculosis H37Rv): 200 µg/mL

Structure (SMILES): Br.Br.Br.CNC1C(O)C(NC)C2OC3(O)C(NC(=O)Cc4nccs4)CC(C)OC3OC2C1O [Compound 19, 3′-Dihydro-3′-deoxy-3′(R)-(thiazol-2-yl) acetylamino spectinomycin trihydrobromide]
- Efflux Ratio (Rv1258c efflux pump): 1
- Rv1258c KO MIC [1]: 6.3 µg/mL
- Ribosome IC50 [2]: 0.72 µg/mL

Structure (SMILES): Br.Br.Br.CNC1C(O)C(NC)C2OC3(O)C(OC(C)C[C@H]3NC(=O)Cc3ccncn3)OC2C1O (stereo partly drawn) [Compound 16, 3′-Dihydro-3′-deoxy-3′(R)-(pyrimidin-4-yl)acetylamino spectinomycin trihydrobromide]
- Efflux Ratio (Rv1258c efflux pump): 0.5
- Rv1258c KO MIC [1]: 25 µg/mL

Structure (SMILES): CNC1C(O)C(NC)C2OC3(O)C(OC(C)C[C@H]3NC(=O)Cc3cccnc3)OC2C1O.Cl.Cl.Cl (stereo partly drawn) [Compound 3, 3′-Dihydro-3′-deoxy-3′(R)-(pyridin-3yl)acetylamino spectinomycin trihydrochloride]
- Rv1258c KO MIC [1]: 6.3 µg/mL
- H37Rv MIC (M. tuberculosis H37Rv): 200 µg/mL

Structure (SMILES): CNC1C(O)C(NC)C2OC3(O)C(OC(C)C[C@H]3NC(=O)Cc3ccncc3)OC2C1O.Cl.Cl.Cl (stereo partly drawn) [Compound 4, 3′-Dihydro-3′-deoxy-3′(R)-(pyridin-4yl)acetylamino spectinomycin trihydrochloride]
- Rv1258c KO MIC [1]: 12.5 µg/mL
- H37Rv MIC (M. tuberculosis H37Rv): 200 µg/mL

Structure (SMILES): Br.Br.Br.CNC1C(O)C(NC)C2OC3(O)C(NC(=O)Cc4ccc(N)cn4)CC(C)OC3OC2C1O [Compound 37, 3′-Dihydro-3′-deoxy-3′(R)-(5-aminopyridin-2-yl)acetylamino spectinomycin trihydrobromide]
- Rv1258c KO MIC [1]: 6.3 µg/mL
- Ribosome IC50 [2]: 0.30 µg/mL
- H37Rv MIC (M. tuberculosis H37Rv): 6.3 µg/mL

Structure (SMILES): CNC1C(O)C(NC)C2OC3(O)C(NC(=O)c4ccccn4)CC(C)OC3OC2C1O.Cl.Cl.Cl [Compound 11, 3′-Dihydro-3′-deoxy-3′(R)-pyridin-2-carboxylicamino spectinomycin trihydrochloride]
- Rv1258c KO MIC [1]: >200 µg/mL

Structure (SMILES): Br.Br.Br.CNC1C(O)C(NC)C2OC3(O)C(NC(=O)Cc4csc(N)n4)CC(C)OC3OC2C1O [Compound 18, 3′-Dihydro-3′-deoxy-3′(R)-(2-aminothiazol-4-yl)acetylamino spectinomycin trihydrobromide]
- Efflux Ratio (Rv1258c efflux pump): 1
- Rv1258c KO MIC [1]: 6.3 µg/mL
- Ribosome IC50 [2]: 0.62 µg/mL
